Source: patent US20140323533A1, “COMBINATION OF ANTI-CTLA4 ANTIBODY WITH TUBULIN MODULATING AGENTS FOR THE TREATMENT OF PROLIFERATIVE DISEASES” (BRISTOL-MYERS SQUIBB COMPANY, priority 2013, published 2014)
Where “and” joins values, the source holds several entries; their conditions need not be identical. Equal values may be shown once.

Columns and labels:
M109 lung carcinoma [1] = assay: Antitumor activity in the M109 lung carcinoma tumor model; type: in vivo, mouse; conditions: for % Tumor-Free Mice after Initial Tumor Implantation: Study 40, footnote: percentage of animals that develop tumors following implantation on Day 0
Procedure: (§1) Tumor cell lines were maintained in vitro. Treatments were initiated when the subcutaneous tumors reached a median size between 100-200 mm^3 (established model) or prior to detection (initiation model). Tumors were measured twice weekly and tumor size (mm^3) was calculated as (length×width^2)/2. Body weights were obtained weekly. The tumor models used in these studies are outlined in Table 1.
(§2) The dose levels, routes and dosing schedules are indicated for each particular study described below. Antibodies and chemotherapeutic agents were administered intraperitoneally (i.p.). Each treatment regimen consisted of a cohort of eight to ten mice. Anti-tumor activity, defined as percentage tumor growth inhibition, was calculated as follows: […]
The antitumor effects of CTLA-4 mAb and microtubule-stabilizing agents were also studied in the M109 lung carcinoma model, a tumor line which is not sensitive to the effect of CTLA-4 blockade. In these studies treatments with chemotherapeutic agents were initiated when tumors were palpable, on day 3 after tumor implantation. This regimen was selected to produce a measurable antitumor effect, which was not observed when treatments were initiated at a later time. As in the studies conducted in the SA1N and EMT-6 tumor lines, CTLA-4 mAb was dosed one day after treatment with chemotherapy.

CT26 colon carcinoma = assay: Antitumor activity in the CT26 colon tumor model; type: in vivo, mouse; conditions: for % Complete Regressions/Total # mice: IP every 4 days x3, ixabepilone 8, paclitaxel 24, CTLA-4 mAb 20 mg/kg; for antitumor effect in words: text and FIG. 2
Procedure: as §1, §2
Next, the antitumor effects of CTLA-4 mAb and nmicrotubule-stabilizing agents were studied in a model not sensitive to ixabepilone or paclitaxel, the CT26 colon carcinoma model.

SA1N fibrosarcoma = assay: Antitumor activity in the SA1N fibrosarcoma tumor model; type: in vivo, mouse; conditions: for % TGI: IP every 4 days x3; for CR/Total # mice: complete regressions; for T-C: target size 500 mm^3
Procedure: as §1
The dose levels, routes and dosing schedules are indicated for each particular study described below. Antibodies and chemotherapeutic agents were administered intraperitoneally (i.p.). Each treatment regimen consisted of a cohort of eight to ten mice. Anti-tumor activity, defined as percentage tumor growth inhibition, was calculated as follows:
% Tumor Growth Inhibition=100−[(Tt/To)/(Ct/Co)]/100−(Ct/Co)
(§3) In addition, another parameter used to define efficacy was to determine time to tumor progression to target size (T−C), where the time (days) for the median tumor size of control (C) mice to reach target size was subtracted to the time for median tumor size of treated (T) mice to reach target size.
SA1N fibrosarcoma is an inherently immunogenic tumor line which is sensitive to the effects of CTLA-4 blockade. Two studies were conducted to determine the effect of CTLA-4 blockade in combination with ixabepilone or paclitaxel in this tumor model (see Table 1). Animals were implanted with SA1N cells subcutaneously and treatments were initiated when tumors reached 100-150 mm^3. Experimental groups consisted of cohorts of 8 mice. Ixabepilone, paclitaxel and CTLA-4 mab were administered intraperitoneally (IP) every 4 days for 3 doses. In the combination groups, CTLA-4 mab was administered one day after each chemotherapy treatment.

EMT-6 mammary carcinoma = assay: Antitumor activity in the EMT-6 mammary tumor model; type: in vivo, mouse; conditions: for % Tumor-free Mice / T-C: Study 27; for T-C: treatment from day 3/4, every 4 days x3 IP, ixabepilone 8, paclitaxel 24, CTLA-4 mAb 20 mg/kg
Procedure: as §1, §2, §3

[2] = tested on: A2780, HCT116, LS174T, HCT116/VM46, Pat-7, A2780Tax, Pat-21 tumor models; assay: Preclinical pharmacology studies of Compound 1 in tumor models; type: in vivo
M109 lung carcinoma [3] = assay: M109 tumor rechallenge of tumor-free mice; type: in vivo, mouse
Source text: To determine whether the combination of CTLA-4+ixabepilone produced a memory immune response able to reject a secondary tumor challenge, animals free of tumors by day 97 were re-challenge with a lethal M109 cell inoculum.

[4] = tested on: SA1N fibrosarcoma, M109 lung carcinoma, EMT-6 mammary carcinoma, CT-26 colon carcinoma and B16 melanoma; assay: Efficacy studies across murine tumor lines (summary); type: in vivo, mouse; conditions: animals with complete regressions rechallenged with lethal dose of tumor cells
Procedure: Efficacy studies were conducted in 3 different tumor lines implanted in immunocompetent mice: SAlN fibrosarcoma, MI09 lung carcinoma and EMT-6 mammary carcinoma. […] For the combination group, anti-CTLA-4 mAb was administered one day after each ixabepilone treatment. In selected studies, animals with complete tumor regressions were rechallenged with a lethal dose of tumor cells to determine the level of immune protection. In other studies, the combined efficacy of CTLA-4 mAb+ixabepilone was compared directly with CTLA-4 InAb+paclitaxel.
The effect of an anti-mouse CTLA-4 blocking antibody, the murine homolog of ipilimumab, was evaluated in multiple murine tumor models in combination with the microtubule-stabilizing agents paclitaxel (TAXOL®), and ixabepilone (IXEMPRA®). Efficacy studies were conducted in 5 different tumor lines: SA1N fibrosarcoma, M109 lung carcinoma, EMT-6 mammary carcinoma, CT-26 colon carcinoma and B16 melanoma. Ixabepilone, paclitaxel and CTLA-4 mAb were administered at their optimal dose and schedule: ixabepilone, 8 mg/kg; paclitaxel, 24 mg/kg, CTLA-4 mAb, 20 mg/kg every 4 days for 3 doses. For the combination group, anti-CTLA-4 mAb was administered one day after each ixabepilone or paclitaxel treatment. In selected studies, animals with complete tumor regressions were rechallenged with a lethal dose of tumor cells to determine the level of immune protection.

[5] = Study 17, calculated Day 33, ixabepilone 8, paclitaxel 24, CTLA-4 mAb 20 mg/kg
[6] = Study 17, study terminated day 116

5beta,20-Epoxy-1,2alpha,4,7beta, 10beta, 13alpha-hexahydroxytax-11-en-9-one 4,10-diacetate 2-benzoate 13-ester with (2R,3S)—N-benzoyl-3-phenylisoserine [Paclitaxel]
antitumor effect in words (M109 lung carcinoma [1]; FIG. 1): did not produce antitumor effects
% Tumor-Free Mice after Initial Tumor Implantation (M109 lung carcinoma [1]): 100%
% Complete Regressions/Total # mice (CT26 colon carcinoma): 0/10
antitumor effect in words (CT26 colon carcinoma): neither paclitaxel or ixabepilone produced any measurable antitumor activity
% TGI (SA1N fibrosarcoma; Study 11, calculated Day 34, paclitaxel 24, CTLA-4 mAb 20 mg/kg): 88%
CR/Total # mice (SA1N fibrosarcoma; Study 11): 3/8
T-C (SA1N fibrosarcoma; Study 11, study terminated day 52): 13 days
% TGI (SA1N fibrosarcoma; [5]): 0%
CR/Total # mice (SA1N fibrosarcoma; Study 17): 0/8
T-C (SA1N fibrosarcoma; [6]): 0 days
antitumor effect in words (SA1N fibrosarcoma; both SA1N studies): variable effect
antitumor effect in words (EMT-6 mammary carcinoma): ineffective
% Tumor-free Mice (EMT-6 mammary carcinoma): 0%
T-C (EMT-6 mammary carcinoma): 0 days

C/C(=C\c1csc(C)n1)[C@@H]1C[C@@H]2O[C@]2(C)CCC[C@H](C)[C@H](O)[C@@H](C)C(=O)C(C)(C)[C@@H](O)CC(=O)N1 (relative stereo) [Compound 1, [1S-[1R*,3R*(E),7R*,10S*,11R*,12R*,16S*]]-7,11-dihydroxy-8,8,10,12,16-pentamethyl-3-[1-methyl-2-(2-methyl-4-thiazolyl)ethenyl]-4-aza-17-oxabicyclo[14.1.0]heptadecane-5,9-dione]
oral efficacy in words ([2]; oral vs parenteral administration): orally efficacious
antitumor activity in words ([2]; paclitaxel-sensitive and paclitaxel-resistant human tumor models): very impressive and broad spectrum of antitumor activity

C/C(=C\c1csc(C)n1)[C@@H]1C[C@@H]2O[C@]2(C)CCC[C@H](C)[C@H](O)[C@@H](C)C(=O)C(C)(C)[C@@H](O)CC(=O)N1 [Ixabepilone, (1S,3S,7S,10R,11S,12S,16R)-7,11-dihydroxy-8,8,10,12,16-pentamethyl-3-[(1E)-1-methyl-2-(2-methyl-4-thiazolyl)ethenyl]-17-oxa-4-azabicyclo[14.1.0]heptadecane-5,9-dione]
treated animals in which tumor growth was inhibited (M109 lung carcinoma [1]): 50%
% Tumor-Free Mice after Initial Tumor Implantation (M109 lung carcinoma [1]): 50%
% Complete Regressions/Total # mice (CT26 colon carcinoma): 0/10
antitumor effect in words (CT26 colon carcinoma): neither paclitaxel or ixabepilone produced any measurable antitumor activity
CR/Total # mice, percentage in parentheses (% CR) (SA1N fibrosarcoma; Study 9): (37.5) %
% TGI (SA1N fibrosarcoma; Study 9, calculated Day 36, ixabepilone 8 mg/kg, CTLA-4 mAb 20 mg/kg): 92%
CR/Total # mice (SA1N fibrosarcoma; Study 9): 3 out of 8 and 3/8
T-C (SA1N fibrosarcoma; Study 9, study terminated day 39): 11 days
CR/Total # mice, percentage in parentheses (% CR) (SA1N fibrosarcoma; Study 17): (0) %
% TGI (SA1N fibrosarcoma; [5]): 83%
CR/Total # mice (SA1N fibrosarcoma; Study 17): 0/8
T-C (SA1N fibrosarcoma; [6]): 7 days
% mice developing tumors after rechallenge (M109 lung carcinoma [3]; Study 40, footnote: percentage of mice that develop tumors after tumor rechallenge on Day 95): 75%
mice that developed tumors after rechallenge, percent (M109 lung carcinoma [3]; tumor-free mice re-challenged with lethal M109 inoculum): 80%
mice that developed tumors after rechallenge (M109 lung carcinoma [3]; tumor-free mice re-challenged with lethal M109 inoculum, count): 4 out of 5
protection against tumor rechallenge in words [4]: only partial protection
% Tumor-free Mice (EMT-6 mammary carcinoma): 20%
T-C (EMT-6 mammary carcinoma): 19 days
